Results as given in PMC9145754, “Novel Soloxolone Amides as Potent Anti-Glioblastoma Candidates: Design, Synthesis, In Silico Analysis and Biological Activities In Vitro and In Vivo” (Pharmaceuticals, 2022).

Legend:
[1] = test system: U87 glioblastoma cells; experiment: Annexin V-APC/PI apoptosis assay, U87; format: cell-based, human; conditions: for U87 Q4-2 (right upper quadrant, late apoptotic cells): 24 h, control 5.9%
Procedure: To evaluate which form of cell death was induced by compound 12 in glioblastoma cells, its ability to stimulate apoptosis, necrosis or autophagy was examined.
To quantify the percentage of cells undergoing apoptosis, glioblastoma U87 and U118 cells were seeded in 6-well plates at 2.8 × 10^5 cells/well in complete growth medium and incubated at standard conditions overnight followed by treatment with 12 at 4 µM for 24 h. Thereafter, the cells were harvested by trypsinization (TrypLE Express (Gibco, USA)) and centrifugation at 400 g for 5 min, washed with PBS and stained with 5 µL of Annexin V-APC (Sony Biotechnology Inc., San Jose, CA, USA) and 10 µL of propidium iodide (PI) (Invitrogen, Waltham, MA, USA) for 15 min at room temperature in the dark. After the incubation time, the cells were analyzed using a NovoCyte Flow Cytometer (ACEA Biosciences Inc., San Diego, CA, USA). For each sample, 10,000 events were acquired.

[2] = test system: U87 cells; experiment: Cytotoxicity of 12 with chloroquine (MTT); format: cell-based; conditions: U87, 12 with chloroquine 50 µM, 24 h
Procedure: Given that pentacyclic triterpenoids can induce tumor cell death not only by the apoptotic pathway but also by triggering autophagy, we next studied whether 12 stimulated autophagy in glioblastoma cells. For this, U87 and U118 cells were incubated with tryptamide 12 at toxic concentrations (2 or 4 µM) for 24 h followed by cell staining with monodansylcadaverine (MDC), a fluorescent dye specifically labeling autophagosomes. […] Considering that autophagy can be associated not only with cell death but also with cytoprotection, its role in the cytotoxicity of 12 in glioblastoma cells was further studied.
In order to evaluate whether autophagy plays an important role in compound 12-induced glioblastoma cell death, U87 cells were seeded in quadruplicate at a density of 1 × 10^4 cells/well in 96-well plates, incubated overnight under standard conditions and co-treated with 12 at 1–5 μM and chloroquine (CQ) at 50 μM for 24 h. Then, cell viability was measured using an MTT test and the curves of cytotoxicity of 12 in the presence or absence of CQ were compared.

Q: What does the source list for `CC1(C)C(=O)C(C#N)=C[C@]2(C)C3=CC(=O)[C@@H]4[C@@H]5C[C@@](C)(C(=O)NCCc6c[nH]c7ccccc67)CC[C@]5(C)CC[C@@]4(C)[C@]3(C)CC[C@@H]12` [compound 12]?
A: U87 Q4-2 (right upper quadrant, late apoptotic cells) ([1]; 12 at 2 µM): 28%; U87 Q4-2 (right upper quadrant, late apoptotic cells) ([1]; 12 at 4 µM): 73.4%; necrotic cell death (left upper quadrant) ([1]; U87, 12 for 24 h): did not cause necrotic cell death; effect of chloroquine on cytotoxic activity of 12 [2]: did not affect the cytotoxic activity
